These compounds were tested on Amaranthus retoflexus (AMARE) (assay: Herbicidal glasshouse test, pre-emergence). Conditions: pre-emergence (sprayed after cultivation for one day), 1000 g/h, evaluated after 13 days.
Format: in vivo
Method: (§1) Seeds of a variety of test species are sown in standard soil in pots (Alopecurus myosuroides (ALOMY), Setaria faberi (SETFA), Echinochloa crus-galli (ECHCG), Solanum nigrum (SOLNI), Amaranthus retoflexus (AMARE), Ipomoea hederacea (IPOHE)). After cultivation for one day (pre-emergence) or after 8 days cultivation (post-emergence) under controlled conditions in a glasshouse (at 24/16° C., day/night; 14 hours light; 65% humidity), the plants are sprayed with an aqueous spray solution derived from the formulation of the technical active ingredient in acetone/water (50:50) solution containing 0.5% Tween 20 (polyoxyethelyene sorbitan monolaurate, CAS RN 9005-64-5). Compounds are applied at 1000 g/h. The test plants are then grown in a glasshouse under controlled conditions in a glasshouse (at 24/16° C., day/night; 14 hours light; 65% humidity) and watered twice daily. After 13 days for pre and post-emergence, the test is evaluated for the percentage damage caused to the plant. The biological activities are shown in the following table on a five point scale (5=80-100%; 4=60-79%; 3=40-59%; 2=20-39%; 1=0-19%).

| Compound | percentage damage caused to the plant, five point scale, PRE Application AMARE |
| --- | --- |
| Cc1cc(C(=O)Nc2nnnn2C)c(=O)n(-c2ccc(Br)cc2)n1 [Compound 1.006] | 5 (5=80-100%) |
| Cc1cc(C(=O)Nc2nnnn2C)c(=O)n(-c2cccc(Br)c2)n1 [Compound 1.007] | 5 (5=80-100%) |
| C=Cc1ccc(-n2nc(C)cc(C(=O)Nc3nnnn3C)c2=O)cc1 [Compound 1.008] | 5 (5=80-100%) |

These compounds were tested on Alopecurus myosuroides (ALOMY) (assay: Herbicidal glasshouse test, pre-emergence). Conditions: pre-emergence (sprayed after cultivation for one day), 1000 g/h, evaluated after 13 days.
Format: in vivo
Method: as §1

| Compound | percentage damage caused to the plant, five point scale, PRE Application ALOMY |
| --- | --- |
| Cc1cc(C(=O)Nc2nnnn2C)c(=O)n(-c2ccc(Br)cc2)n1 [Compound 1.006] | 5 (5=80-100%) |
| Cc1cc(C(=O)Nc2nnnn2C)c(=O)n(-c2cccc(Br)c2)n1 [Compound 1.007] | 5 (5=80-100%) |
| C=Cc1ccc(-n2nc(C)cc(C(=O)Nc3nnnn3C)c2=O)cc1 [Compound 1.008] | 5 (5=80-100%) |

Each compound was assayed on Solanum nigrum (SOLNI) (assay: Herbicidal glasshouse test, pre-emergence). Conditions: pre-emergence (sprayed after cultivation for one day), 1000 g/h, evaluated after 13 days.
Format: in vivo
Method: as §1

| Compound | percentage damage caused to the plant, five point scale, PRE Application SOLNI |
| --- | --- |
| Cc1cc(C(=O)Nc2nnnn2C)c(=O)n(-c2ccc(Br)cc2)n1 [Compound 1.006] | 5 (5=80-100%) |
| Cc1cc(C(=O)Nc2nnnn2C)c(=O)n(-c2cccc(Br)c2)n1 [Compound 1.007] | 5 (5=80-100%) |
| C=Cc1ccc(-n2nc(C)cc(C(=O)Nc3nnnn3C)c2=O)cc1 [Compound 1.008] | 5 (5=80-100%) |

Each compound was assayed on Ipomoea hederacea (IPOHE) (assay: Herbicidal glasshouse test, pre-emergence). Conditions: pre-emergence (sprayed after cultivation for one day), 1000 g/h, evaluated after 13 days.
Format: in vivo
Method: as §1

| Compound | percentage damage caused to the plant, five point scale, PRE Application IPOHE |
| --- | --- |
| Cc1cc(C(=O)Nc2nnnn2C)c(=O)n(-c2ccc(Br)cc2)n1 [Compound 1.006] | 4 (4=60-79%) |
| Cc1cc(C(=O)Nc2nnnn2C)c(=O)n(-c2cccc(Br)c2)n1 [Compound 1.007] | 3 (3=40-59%) |
| C=Cc1ccc(-n2nc(C)cc(C(=O)Nc3nnnn3C)c2=O)cc1 [Compound 1.008] | 2 (2=20-39%) |

These compounds were tested on Echinochloa crus-galli (ECHCG) (assay: Herbicidal glasshouse test, pre-emergence). Conditions: pre-emergence (sprayed after cultivation for one day), 1000 g/h, evaluated after 13 days.
Format: in vivo
Method: as §1

| Compound | percentage damage caused to the plant, five point scale, PRE Application ECHCG |
| --- | --- |
| Cc1cc(C(=O)Nc2nnnn2C)c(=O)n(-c2ccc(Br)cc2)n1 [Compound 1.006] | 5 (5=80-100%) |
| Cc1cc(C(=O)Nc2nnnn2C)c(=O)n(-c2cccc(Br)c2)n1 [Compound 1.007] | 5 (5=80-100%) |
| C=Cc1ccc(-n2nc(C)cc(C(=O)Nc3nnnn3C)c2=O)cc1 [Compound 1.008] | 4 (4=60-79%) |

Each compound was assayed on Setaria faberi (SETFA) (assay: Herbicidal glasshouse test, pre-emergence). Conditions: pre-emergence (sprayed after cultivation for one day), 1000 g/h, evaluated after 13 days.
Format: in vivo
Method: as §1

| Compound | percentage damage caused to the plant, five point scale, PRE Application SETFA |
| --- | --- |
| Cc1cc(C(=O)Nc2nnnn2C)c(=O)n(-c2ccc(Br)cc2)n1 [Compound 1.006] | 5 (5=80-100%) |
| Cc1cc(C(=O)Nc2nnnn2C)c(=O)n(-c2cccc(Br)c2)n1 [Compound 1.007] | 5 (5=80-100%) |
| C=Cc1ccc(-n2nc(C)cc(C(=O)Nc3nnnn3C)c2=O)cc1 [Compound 1.008] | 5 (5=80-100%) |

What follows are compounds tested on Amaranthus retoflexus (AMARE) (assay: Herbicidal glasshouse test, post-emergence). Conditions: post-emergence (sprayed after 8 days cultivation), 1000 g/h, evaluated after 13 days.
Format: in vivo
Method: as §1

| Compound | percentage damage caused to the plant, five point scale, POST Application AMARE |
| --- | --- |
| Cc1cc(C(=O)Nc2nnnn2C)c(=O)n(-c2ccc(Br)cc2)n1 [Compound 1.006] | 5 (5=80-100%) |
| Cc1cc(C(=O)Nc2nnnn2C)c(=O)n(-c2cccc(Br)c2)n1 [Compound 1.007] | 5 (5=80-100%) |
| C=Cc1ccc(-n2nc(C)cc(C(=O)Nc3nnnn3C)c2=O)cc1 [Compound 1.008] | 5 (5=80-100%) |
| Cc1cc(C(=O)Nc2nnnn2C)c(=O)n(-c2ccc(C#N)cn2)n1 [Compound 1.022] | 5 (5=80-100%) |

The compounds below were run on Alopecurus myosuroides (ALOMY) (assay: Herbicidal glasshouse test, post-emergence). Conditions: post-emergence (sprayed after 8 days cultivation), 1000 g/h, evaluated after 13 days.
Format: in vivo
Method: as §1

| Compound | percentage damage caused to the plant, five point scale, POST Application ALOMY |
| --- | --- |
| Cc1cc(C(=O)Nc2nnnn2C)c(=O)n(-c2ccc(Br)cc2)n1 [Compound 1.006] | 5 (5=80-100%) |
| Cc1cc(C(=O)Nc2nnnn2C)c(=O)n(-c2cccc(Br)c2)n1 [Compound 1.007] | 5 (5=80-100%) |
| C=Cc1ccc(-n2nc(C)cc(C(=O)Nc3nnnn3C)c2=O)cc1 [Compound 1.008] | 5 (5=80-100%) |
| Cc1cc(C(=O)Nc2nnnn2C)c(=O)n(-c2ccc(C#N)cn2)n1 [Compound 1.022] | 5 (5=80-100%) |

These compounds were tested on Solanum nigrum (SOLNI) (assay: Herbicidal glasshouse test, post-emergence). Conditions: post-emergence (sprayed after 8 days cultivation), 1000 g/h, evaluated after 13 days.
Format: in vivo
Method: as §1

| Compound | percentage damage caused to the plant, five point scale, POST Application SOLNI |
| --- | --- |
| Cc1cc(C(=O)Nc2nnnn2C)c(=O)n(-c2ccc(Br)cc2)n1 [Compound 1.006] | 5 (5=80-100%) |
| Cc1cc(C(=O)Nc2nnnn2C)c(=O)n(-c2cccc(Br)c2)n1 [Compound 1.007] | 5 (5=80-100%) |
| C=Cc1ccc(-n2nc(C)cc(C(=O)Nc3nnnn3C)c2=O)cc1 [Compound 1.008] | 5 (5=80-100%) |
| Cc1cc(C(=O)Nc2nnnn2C)c(=O)n(-c2ccc(C#N)cn2)n1 [Compound 1.022] | 5 (5=80-100%) |

Each compound was assayed on Ipomoea hederacea (IPOHE) (assay: Herbicidal glasshouse test, post-emergence). Conditions: post-emergence (sprayed after 8 days cultivation), 1000 g/h, evaluated after 13 days.
Format: in vivo
Method: as §1

| Compound | percentage damage caused to the plant, five point scale, POST Application IPOHE |
| --- | --- |
| Cc1cc(C(=O)Nc2nnnn2C)c(=O)n(-c2ccc(Br)cc2)n1 [Compound 1.006] | 4 (4=60-79%) |
| Cc1cc(C(=O)Nc2nnnn2C)c(=O)n(-c2cccc(Br)c2)n1 [Compound 1.007] | 5 (5=80-100%) |
| C=Cc1ccc(-n2nc(C)cc(C(=O)Nc3nnnn3C)c2=O)cc1 [Compound 1.008] | 5 (5=80-100%) |
| Cc1cc(C(=O)Nc2nnnn2C)c(=O)n(-c2ccc(C#N)cn2)n1 [Compound 1.022] | 4 (4=60-79%) |

What follows are compounds tested on Echinochloa crus-galli (ECHCG) (assay: Herbicidal glasshouse test, post-emergence). Conditions: post-emergence (sprayed after 8 days cultivation), 1000 g/h, evaluated after 13 days.
Format: in vivo
Method: as §1

| Compound | percentage damage caused to the plant, five point scale, POST Application ECHCG |
| --- | --- |
| Cc1cc(C(=O)Nc2nnnn2C)c(=O)n(-c2ccc(Br)cc2)n1 [Compound 1.006] | 5 (5=80-100%) |
| Cc1cc(C(=O)Nc2nnnn2C)c(=O)n(-c2cccc(Br)c2)n1 [Compound 1.007] | 5 (5=80-100%) |
| C=Cc1ccc(-n2nc(C)cc(C(=O)Nc3nnnn3C)c2=O)cc1 [Compound 1.008] | 5 (5=80-100%) |
| Cc1cc(C(=O)Nc2nnnn2C)c(=O)n(-c2ccc(C#N)cn2)n1 [Compound 1.022] | 5 (5=80-100%) |

What follows are compounds tested on Setaria faberi (SETFA) (assay: Herbicidal glasshouse test, post-emergence). Conditions: post-emergence (sprayed after 8 days cultivation), 1000 g/h, evaluated after 13 days.
Format: in vivo
Method: as §1

| Compound | percentage damage caused to the plant, five point scale, POST Application SETFA |
| --- | --- |
| Cc1cc(C(=O)Nc2nnnn2C)c(=O)n(-c2ccc(Br)cc2)n1 [Compound 1.006] | 5 (5=80-100%) |
| Cc1cc(C(=O)Nc2nnnn2C)c(=O)n(-c2cccc(Br)c2)n1 [Compound 1.007] | 5 (5=80-100%) |
| C=Cc1ccc(-n2nc(C)cc(C(=O)Nc3nnnn3C)c2=O)cc1 [Compound 1.008] | 5 (5=80-100%) |
| Cc1cc(C(=O)Nc2nnnn2C)c(=O)n(-c2ccc(C#N)cn2)n1 [Compound 1.022] | 5 (5=80-100%) |

From patent publication US9402398B2, “Herbicidal compounds” (SYNGENTA PARTICIPATIONS AG, priority 2012, dated 2016)
